Entries after “also recorded” stand apart in the source; their conditions may differ.
Assays:
[1] = system: human peripheral blood lymphocytes (PBL); assay: Human PBL proliferation assay (mitogenicity); format: cell-based; details: PBL proliferation assays
Text: PTR 3173 was furthermore found to be not mitogenic for human lymphocytes in human peripheral blood lymphocytes (PBL) proliferation assays.

[2] = In vitro biostability in renal homogenate (HPLC)
Experimental: The assay was based on HPLC determination of peptide degradation as a function of time in renal homogenate at 37° C.

[3] = Initial safety testing in rodents; format: in vivo; details: dose 10,000-fold higher then the efficacious dose for inhibiting Growth hormone release
Experimental: PTR 3173 was tested in various species for its initial safety properties. Under the European Pharmacopoeia requirements for safety testing, it was declared a safe drug candidate at this stage of development.

[4] = system: human Carcinoid BON-1 cells; assay: Inhibition of cAMP in human Carcinoid BON-1 cells; format: cell-based; details: following Forskolin stimulation
Text: The activation of SST-R5 leads to the reduction of Adenylate Cyclase activity. Somatostatin receptors including type-5 receptors are expressed in the human Carcinoid derived cell line BON-1. This human cell culture served as an in-vitro discovery assay for novel Carcinoid therapeutics. Interaction of somatostatin analogs with Somatostatin receptors expressed in this system subsequently affects cellular functionality of BON-1.

SSTR-4 = biological target: T1, SSTR-4 (Homo sapiens, UniProt P31391); assay: Inhibition of 125I-Tyr11-SRIF binding to membrane preparations expressing SSTR-4; details: SSTR-R4, read-out: Percent inhibition of SRIF-14 binding
T1 construct: expressed in transfected cells
Experimental: (§1) The somatostatin analogs were tested for their potency in inhibition of the binding of ^125I-Tyr^11-SRIF (based on the method described by Raynor et. al., Molecular Pharmacology, 1993, 43, 838-844) to membrane preparations expressing the transmembranal somatostatin receptors (SSTR-1, 2, 3, 4 or 5). The receptor preparations used for these tests were either from the cloned human receptors selectively and stably expressed in Chinese Hamster Ovary (CHO) cells or from cell lines naturally expressing the SSTRs. Typically, cell membranes were homogenated in Tris buffer in the presence of protease inhibitors and incubated for 30-40 minutes with ^125I-Tyr^11-SRIF with different concentrations of the tested sample. The binding reactions were filtered, the filters were washed and the bound radioactivity was counted in gamma counter. Non specific binding was defined as the radioactivity remaining bound in the presence of 1 μM unlabeled SRIF-14.
(§2) In order to validate positive signals of the binding tests, and to eliminate non-specific signals, samples of irrelevant peptides, such as GnRH, that were synthesized and handled using the same procedures, were tested in the same assays as negative control samples. These samples had no binding activity in any of the assays. Results are shown below in Tables 5 and 6 and FIG. 1.

[5] = system: CHO cells expressing human cloned SST-R5; assay: In-vitro cell-growth inhibition; format: cell-based
Experimental: Pharmacological evaluation of growth inhibition was performed utilizing CHO cells expressing human cloned SST-R5.

SSTR-1 = biological target: T2, SSTR-1 (Homo sapiens, UniProt P30872); assay: Inhibition of 125I-Tyr11-SRIF binding to membrane preparations expressing SSTR-1; details: read-out: Percent inhibition of SRIF-14 binding
T2 construct: expressed in transfected cells
Experimental: as §1, with “Typically, cell membranes were homogenated in Tris buffer in the presence of protease inhibitors and incubated for 30-40 minutes with ^125I-Tyr^11-SRIF with different concentrations of the tested sample.” left out
as §2

SSTR-2 = biological target: T3, SSTR-2 (Homo sapiens, UniProt P30874); assay: Inhibition of 125I-Tyr11-SRIF binding to membrane preparations expressing SSTR-2; details: read-out: Percent inhibition of SRIF-14 binding
T3 construct: expressed in transfected cells
Experimental: (§3) The receptor preparations used for these tests were either from the cloned human receptors selectively and stably expressed in Chinese Hamster Ovary (CHO) cells or from cell lines naturally expressing the SSTRs. […] The binding reactions were filtered, the filters were washed and the bound radioactivity was counted in gamma counter. Non specific binding was defined as the radioactivity remaining bound in the presence of 1 μM unlabeled SRIF-14.
as §2

SSTR-5 = biological target: T4, SSTR-5 (Homo sapiens, UniProt P35346); assay: Inhibition of 125I-Tyr11-SRIF binding to membrane preparations expressing SSTR-5; details: read-out: Percent inhibition of SRIF-14 binding
T4 construct: expressed in transfected cells
Experimental: as §3, §2

SSTR-3 = biological target: T5, SSTR-3 (Homo sapiens, UniProt P32745); assay: Inhibition of 125I-Tyr11-SRIF binding to membrane preparations expressing SSTR-3; details: read-out: Percent inhibition of SRIF-14 binding
T5 construct: expressed in transfected cells
Experimental: as §1, with “Typically, cell membranes were homogenated in Tris buffer in the presence of protease inhibitors and incubated for 30-40 minutes with ^125I-Tyr^11-SRIF with different concentrations of the tested sample.” left out
as §2

[6] = system: other G-protein coupled receptors; assay: Binding to non-somatostatin G-protein coupled receptors; details: screening vs. Octreotide and SRIF
Text: This characteristic is of great advantageous because binding to non-somatostatin receptors could cause potential adverse effects in the body.
(§4) NovaScreen (Hanover, Md.) performed an assessment for nonspecific binding to various G-protein coupled receptor families. Binding studies to Neurokinin, Opiate and Muscarinic receptors were based on a comparison between the native hormone Somatostatin, Ocreotide and PTR 3173.

Opiate receptors = assay: NovaScreen nonspecific binding, Opiate receptors; details: tested at 100 nM; FIG. 2
Text: as §4

[7] = Pharmacokinetics following IV & SC administration; details: for dose excreted: urine
[8] = kidney or brush border membranes

T3 sequence (P30874 whole entry): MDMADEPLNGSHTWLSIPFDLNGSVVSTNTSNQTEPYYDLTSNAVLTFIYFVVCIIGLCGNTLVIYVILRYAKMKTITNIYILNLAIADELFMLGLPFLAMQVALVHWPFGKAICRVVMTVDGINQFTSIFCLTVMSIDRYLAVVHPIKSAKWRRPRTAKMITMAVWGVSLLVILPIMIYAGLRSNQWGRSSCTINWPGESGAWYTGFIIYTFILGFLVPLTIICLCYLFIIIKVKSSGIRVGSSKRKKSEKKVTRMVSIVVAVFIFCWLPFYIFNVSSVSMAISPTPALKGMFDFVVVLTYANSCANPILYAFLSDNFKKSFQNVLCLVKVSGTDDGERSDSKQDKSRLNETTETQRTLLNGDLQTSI
T1 sequence (P31391 whole entry): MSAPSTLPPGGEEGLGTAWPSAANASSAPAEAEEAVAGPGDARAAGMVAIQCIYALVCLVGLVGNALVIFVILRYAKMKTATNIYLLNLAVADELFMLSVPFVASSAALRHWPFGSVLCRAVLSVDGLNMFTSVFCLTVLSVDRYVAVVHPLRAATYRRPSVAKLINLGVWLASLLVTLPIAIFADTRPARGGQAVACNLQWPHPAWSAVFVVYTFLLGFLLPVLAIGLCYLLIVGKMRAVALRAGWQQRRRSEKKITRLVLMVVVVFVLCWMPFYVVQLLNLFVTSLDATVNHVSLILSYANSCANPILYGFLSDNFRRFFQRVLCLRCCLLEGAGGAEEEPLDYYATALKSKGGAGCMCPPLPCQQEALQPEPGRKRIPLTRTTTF
T4 sequence (P35346 whole entry): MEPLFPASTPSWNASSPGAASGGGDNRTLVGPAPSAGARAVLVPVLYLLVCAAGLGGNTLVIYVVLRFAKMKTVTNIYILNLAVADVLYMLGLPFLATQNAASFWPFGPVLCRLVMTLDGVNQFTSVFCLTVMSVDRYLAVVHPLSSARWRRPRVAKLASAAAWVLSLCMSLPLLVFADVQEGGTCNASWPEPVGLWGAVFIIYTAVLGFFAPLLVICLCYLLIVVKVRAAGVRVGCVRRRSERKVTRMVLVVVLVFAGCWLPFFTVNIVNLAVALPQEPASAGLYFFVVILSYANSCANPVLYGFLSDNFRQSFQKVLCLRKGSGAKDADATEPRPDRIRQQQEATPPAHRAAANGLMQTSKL
T5 sequence (P32745 whole entry): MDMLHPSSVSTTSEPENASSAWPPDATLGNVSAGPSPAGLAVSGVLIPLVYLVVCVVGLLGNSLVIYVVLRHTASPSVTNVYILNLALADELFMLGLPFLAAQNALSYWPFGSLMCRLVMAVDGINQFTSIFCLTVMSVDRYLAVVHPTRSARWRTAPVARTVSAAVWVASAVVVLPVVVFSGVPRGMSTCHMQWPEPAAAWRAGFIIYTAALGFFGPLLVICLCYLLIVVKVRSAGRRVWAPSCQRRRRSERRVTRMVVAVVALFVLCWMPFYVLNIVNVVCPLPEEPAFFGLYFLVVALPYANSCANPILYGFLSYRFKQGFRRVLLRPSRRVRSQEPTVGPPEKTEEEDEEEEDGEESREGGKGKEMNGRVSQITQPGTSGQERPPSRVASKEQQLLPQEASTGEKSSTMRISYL
T2 sequence (P30872 whole entry): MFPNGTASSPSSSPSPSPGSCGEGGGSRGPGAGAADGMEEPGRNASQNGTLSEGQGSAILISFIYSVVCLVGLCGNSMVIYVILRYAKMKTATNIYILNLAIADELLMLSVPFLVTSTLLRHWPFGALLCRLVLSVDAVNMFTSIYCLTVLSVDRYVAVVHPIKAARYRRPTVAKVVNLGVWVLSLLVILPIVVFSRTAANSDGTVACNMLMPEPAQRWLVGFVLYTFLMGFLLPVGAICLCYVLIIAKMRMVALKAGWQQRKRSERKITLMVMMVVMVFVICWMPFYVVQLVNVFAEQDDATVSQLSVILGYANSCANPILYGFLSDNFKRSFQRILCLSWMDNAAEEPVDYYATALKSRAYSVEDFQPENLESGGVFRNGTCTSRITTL

SMILES: C[C@@H](O)[C@@H]1NC(=O)[C@H](CCCCN)NC(=O)[C@@H](Cc2c[nH]c3ccccc23)NC(=O)[C@H](Cc2c[nH]c3ccccc23)NC(=O)[C@H](Cc2ccccc2)NC(=O)CCCNC(=O)CCCN(CC(N)=O)C(=O)[C@H](Cc2ccccc2)NC1=O [PTR 3173, GABA*-Phe-Trp-(D)Trp-Lys-Thr-Phe-Gly(C3)-X]
- mitogenicity for human lymphocytes [1]: not mitogenic
- Percent of intact molecule after incubation in renal homogenate ([2]; Time 0 hrs, 37° C.): 100%
- remaining at 1 h [2, 8]: 100%
- remaining at 3 h [2, 8]: 100%
- remaining at 24 h [2, 8]: 100%
- toxicity signs [3]: No toxicity signs
- inhibition of cAMP production [4]: equipotent to clinically used drug Octreotide
- inhibition at 1 µM (SSTR-4; 10^−6 M): 5%
- inhibition at 0.1 µM (SSTR-4; 10^−7 M): 5%
- inhibition at 0.01 µM (SSTR-4; 10^−8 M): 0%
- inhibition at 0.001 µM (SSTR-4; 10^−9 M): 0%
- inhibition at 0.0001 µM (SSTR-4; 10^−10 M): 0%
- inhibition at 10 pM (SSTR-4; 10^−11 M): 0%
- growth inhibition [5]: significant growth inhibition; also recorded: considerably higher potency of growth inhibition compared to the native hormone and the drug Octreotide
- inhibition at 10 pM (SSTR-1): 0%
- inhibition at 0.0001 µM (SSTR-1): 0%
- inhibition at 0.001 µM (SSTR-1): 0%
- inhibition at 0.01 µM (SSTR-1): 0%
- inhibition at 0.1 µM (SSTR-1): 5%
- inhibition at 1 µM (SSTR-1): 15%
- inhibition at 10 pM (SSTR-2): 15%
- inhibition at 0.0001 µM (SSTR-2): 30%
- inhibition at 0.001 µM (SSTR-2): 42%
- inhibition at 0.01 µM (SSTR-2): 80%
- inhibition at 0.1 µM (SSTR-2): 95%
- inhibition at 1 µM (SSTR-2): 96%
- inhibition at 10 pM (SSTR-5): 20%
- inhibition at 0.0001 µM (SSTR-5): 48%
- inhibition at 0.001 µM (SSTR-5): 63%
- inhibition at 0.01 µM (SSTR-5): 82%
- inhibition at 0.1 µM (SSTR-5): 95%
- inhibition at 1 µM (SSTR-5): 95%
- inhibition at 10 pM (SSTR-3): 2%
- inhibition at 0.0001 µM (SSTR-3): 1%
- inhibition at 0.001 µM (SSTR-3): 1%
- inhibition at 0.01 µM (SSTR-3): 4%
- inhibition at 0.1 µM (SSTR-3): 50%
- inhibition at 1 µM (SSTR-3): 89%
- binding to other G-protein coupled receptors [6]: binds significantly less other G-protein coupled receptors than Octreotide
- binding to Opiate receptors (Opiate receptors): did not bind
- Clearance ([7]; SC, Conscious Wistar rats): 13.3 mL/min/kg
- Clearance ([7]; Wistar, rat, in vivo, iv): 13 mL/min/kg
- Vd ([7]; Wistar, rat, in vivo, iv): 0.653 L/kg
- half-life ([7]; Wistar, rat, in vivo, iv, T½β (min) circulating half life, Conscious Wistar rats): 0.517 h
- bioavailability ([7]; Wistar, rat, in vivo, sc): 99.6%
- half-life ([7]; Wistar, rat, in vivo, sc, T½β (min) circulating half life, Conscious Wistar rats): 2.83 h
- half-life ([7]; Wistar, rat, in vivo, sc, circulatory half-life, subcutaneous administration to rats): ~3 h
- dose excreted ([7]; Wistar, rat, iv): 10.3%
- dose excreted ([7]; Wistar, rat, sc): 15.9%
- pharmacokinetic profile ([7]; subcutaneous administration, animals): flip flop (a slow release kinetic) pharmacokinetcs

— patent US6930088B2, “Conformationally constrained backbone cyclized somatostatin analogs” (Peptor Ltd., priority 1998, dated 2005)
